Laboratory results reported in ChEMBL document CHEMBL1138460, “Synthesis of a new opioid ligand having the oxabicyclo[3.2.1]octane skeleton using a new rearrangement reaction” (Bioorg Med Chem Lett, 2009).
pKi: −log10 of the molar value.

Columns and labels:
[1] = Displacement of [3H]NTI from delta opioid receptor in guinea pig forebrain; design: species or system Cavia porcellus
[2] = molecular target: Kappa-type opioid receptor (Cavia porcellus, UniProt P41144); experiment: Displacement of [3H]U69593 from kappa opioid receptor in guinea pig cerebellum; format: tissue-based
Sequence of Kappa-type opioid receptor (P41144 whole entry): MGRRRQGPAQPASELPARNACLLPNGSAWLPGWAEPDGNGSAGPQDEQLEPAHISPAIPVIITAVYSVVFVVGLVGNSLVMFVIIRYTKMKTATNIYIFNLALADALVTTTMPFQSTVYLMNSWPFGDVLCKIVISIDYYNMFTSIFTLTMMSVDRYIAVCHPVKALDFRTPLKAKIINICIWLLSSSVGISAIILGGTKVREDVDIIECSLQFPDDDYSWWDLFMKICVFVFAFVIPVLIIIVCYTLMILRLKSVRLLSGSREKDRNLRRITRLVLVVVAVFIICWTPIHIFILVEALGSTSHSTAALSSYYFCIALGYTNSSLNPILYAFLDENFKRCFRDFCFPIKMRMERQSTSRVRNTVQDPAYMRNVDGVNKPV

[3] = molecular target: Mu-type opioid receptor (Cavia porcellus, UniProt P97266); experiment: Displacement of [3H]DAMGO from mu opioid receptor in guinea pig forebrain
Sequence of Mu-type opioid receptor (P97266 whole entry): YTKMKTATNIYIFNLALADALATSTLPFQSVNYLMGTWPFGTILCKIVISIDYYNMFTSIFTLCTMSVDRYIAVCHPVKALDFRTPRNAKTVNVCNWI

[4] = molecular target: Opioid receptor (mu and kappa) (Cavia porcellus) (UniProt P41144+P97266); experiment: Ratio of Ki for guinea pig mu opioid receptor to Ki for guinea pig kappa opioid receptor
Sequence of Opioid receptor (mu and kappa) (Cavia porcellus) (P41144 whole entry, looked up): as the sequence (P41144 whole entry) above
Sequence of Opioid receptor (mu and kappa) (Cavia porcellus) (P97266 whole entry, looked up): as the sequence (P97266 whole entry) above

Structure (SMILES) | pKi [1] | pKi [2] | pKi [3] | Ratio Ki [4]
O=C1CC[C@@]2(O)[C@H]3Cc4ccc(O)c5c4[C@@]2(CCN3CC2CC2)[C@H]1O5 [NALTREXONE] | 7.68 | – | – | –
OC[C@]12CC[C@@]3(O1)[C@H]1Cc4ccc(O)cc4[C@@]3(CCN1CC1CC1)C2 | 8.46 | 9.99 | 9.84 | 1.42
O=C1C[C@]23CCN(CC4CC4)[C@H](Cc4ccc(O)cc42)[C@]32CC[C@H]1O2 | 8.16 | 9.63 | 9.40 | 1.7
